Source: patent US20160075653A1, “NEMATICIDAL N-(PHENYLCYCLOALKYL)CARBOXAMIDES AND N-(PHENYLCYCLOALKYL)THIOCARBOXAMIDES” (BAYER CROPSCIENCE AKTIENGESELLSCHAFT, priority 2013, published 2016)

Assay: Measurement of log P values by HPLC on reversed phase columns (methods [a] pH 2.3, [b] pH 2.7, [c] pH 7.8)
Format: physicochemical
Procedure: Measurement of log P-Values:
Measurement of log P Values was Performed According EEC Directive 79/831 Annex V.A8 by HPLC (High Performance Liquid
Chromatography) on reversed phase columns with the following methods: ^[a] Measurement was done at pH 2.3 with 0.1% phosphoric acid and acetonitrile as eluent with a linear gradient from 10% acetonitrile to 95% acetonitrile. ^[b] measurement of LC-MS was done at pH 2.7 with 0.1% formic acid in water and with acetonitrile (contains 0.1% formic acid) as eluent with a linear gradient from 10% acetonitrile to 95% acetonitrile. ^[c] Measurement with LC-MS was done at pH 7.8 with 0.001 molar ammonium hydrogen carbonate solution in water as eluent with a linear gradient from 10% acetonitrile to 95% acetonitrile.
Calibration was done with linear alkan-2-ones (with 3 to 16 carbon atoms) with known log P-values (measurement of log P values using retention times with linear interpolation between successive alkanones). Lambda-max-values were determined using UV-spectra from 200 nm to 400 nm and the peak values of the chromatographic signals.

[1] = HPLC on reversed phase columns, method [b], pH 2.7
[2] = method [b], HPLC reversed phase, pH 2.7
[3] = HPLC reversed phase, method [b] (pH 2.7)
[4] = HPLC reversed phase, method [c] pH 7.8

| SMILES | logP [1] | logP [2] | logP [3] | logP [4] |
| --- | --- | --- | --- | --- |
| Cc1nc(Br)sc1C(=O)N[C@@H]1CCC[C@@H]1c1ccc(F)c(F)c1 (relative stereo) [Example 123] | 3.46^[b] | – | – | – |
| O=C(N[C@@H]1CCC[C@@H]1c1ccc(F)c(F)c1)c1ccc(C(F)(F)F)nc1Cl (relative stereo) [Example 124] | 3.68^[b] | – | – | – |
| Cn1cc(C(=O)N[C@@H]2CCC[C@H]2c2ccc(F)c(F)c2)c(C(F)F)n1 (relative stereo) [Example 125] | 2.88^[b] | – | – | – |
| CCOc1nn(C)cc1C(=O)N[C@@H]1CCC[C@H]1c1ccc(F)c(F)c1 (relative stereo) [Example 127] | – | 3.13^[b] | – | – |
| Cc1nc(C(F)(F)F)c(C(=O)N[C@@H]2CCC[C@H]2c2ccc(F)c(F)c2)s1 (relative stereo) [Example 128] | – | 3.42^[b] | – | – |
| O=C(N[C@@H]1CCC[C@H]1c1ccc(F)c(F)c1)c1ccsc1I (relative stereo) [Example 129] | – | 3.58^[b] | – | – |
| O=C(N[C@@H]1CCC[C@H]1c1ccc(F)c(F)c1)C1=C(C(F)(F)F)OCCS1 (relative stereo) [Example 130] | – | 3.39^[b] | – | – |
| O=C(N[C@@H]1CCC[C@H]1c1ccc(F)c(F)c1)c1ccccc1I (relative stereo) [Example 131] | – | 3.56^[b] | – | – |
| Cn1cccc1C(=O)N[C@@H]1CCC[C@H]1c1ccc(F)c(F)c1 (relative stereo) [Example 132] | – | 3.23^[b] | – | – |
| Cc1occc1C(=O)N[C@@H]1CCC[C@H]1c1ccc(F)c(F)c1 (relative stereo) [Example 133] | – | 3.17^[b] | – | – |
| Cc1cc(C(=O)N[C@@H]2CCC[C@H]2c2ccc(F)c(F)c2)c(C)o1 (relative stereo) [Example 134] | – | 3.46^[b] | – | – |
| Cn1cc(C(=O)N[C@@H]2CCC[C@H]2c2ccc(F)c(F)c2)c(=O)[nH]1 (relative stereo) [Example 135] | – | 2.18^[b] | – | – |
| Cc1ccsc1C(=O)N[C@@H]1CCC[C@H]1c1ccc(F)c(F)c1 (relative stereo) [Example 136] | – | 3.46^[b] | – | – |
| O=C(N[C@@H]1CC[C@H]1c1ccccc1Cl)c1ccc(Cl)cc1Cl (relative stereo) [Example 240] | – | 3.84^[b] | – | – |
| O=C(N[C@@H]1CC[C@H]1c1ccccc1Cl)c1ccccc1I (relative stereo) [Example 241] | – | 3.46^[b] | – | – |
| O=C(N[C@@H]1CC[C@H]1c1ccccc1Cl)c1ccccc1C(F)(F)F (relative stereo) [Example 242] | – | 3.45^[b] | – | – |
| O=C(N[C@@H]1CC[C@H]1c1ccccc1Cl)c1c(F)cccc1F (relative stereo) [Example 243] | – | – | 3.11^[b] | – |
| O=C(N[C@@H]1CC[C@H]1c1ccccc1Cl)c1ccccc1Br (relative stereo) [Example 244] | – | – | 3.33^[b] | – |
| O=C(N[C@@H]1CC[C@H]1c1ccccc1Cl)c1cccnc1C(F)(F)F (relative stereo) [Example 245] | – | – | 2.89^[b] | – |
| O=C(N[C@@H]1CC[C@@H]1c1ccccc1Cl)c1ncc(C(F)(F)F)cc1Cl (relative stereo) [Example 246] | – | – | 3.77^[b] | – |
| O=C(N[C@@H]1CC[C@@H]1c1ccccc1Cl)c1ccc(Cl)cc1Cl (relative stereo) [Example 249] | – | – | 3.65^[b] | – |
| Cn1cc(C(=O)N[C@@H]2CC[C@@H]2c2ccccc2Cl)c(C(F)F)n1 (relative stereo) [Example 255] | – | – | 2.47^[b] | – |
| O=C(N[C@@H]1CC[C@H]1c1ccc(Cl)cc1Cl)c1ncccc1Cl (relative stereo) [Example 257] | – | – | 3.69^[b] | – |
| O=C(N[C@@H]1CC[C@H]1c1ccc(Cl)cc1Cl)c1ncc(C(F)(F)F)cc1Cl (relative stereo) [Example 258] | – | – | 4.53^[b] | – |
| O=C(N[C@@H]1CC[C@@H]1c1ccc(Cl)cc1Cl)c1ncc(C(F)(F)F)cc1Cl (relative stereo) [Example 259] | – | – | 4.23^[b] | – |
| Cn1cc(C(=O)N[C@@H]2CC[C@H]2c2ccccc2Cl)c(C(F)F)n1 (relative stereo) [Example 262] | – | – | 2.72^[b] | – |
| Cn1cc(C(=O)N[C@@H]2CC[C@@H]2c2ccccc2C(F)(F)F)c(C(F)F)n1 (relative stereo) [Example 263] | – | – | 2.75^[b] | – |

The next lines start with the values.

| logP [1] | logP [2] | logP [3] | logP [4] | SMILES |
| --- | --- | --- | --- | --- |
| – | – | 4.09^[b] | – | O=C(N[C@@H]1CC[C@H]1c1ccc(Cl)cc1Cl)c1ccccc1I (relative stereo) [Example 264] |
| – | – | 4.48^[b] | – | O=C(N[C@@H]1CC[C@H]1c1ccc(Cl)cc1Cl)c1ccc(Cl)cc1Cl (relative stereo) [Example 265] |
| – | – | 4.16^[b] | – | O=C(N[C@@H]1CC[C@@H]1c1ccc(Cl)cc1Cl)c1ccc(Cl)cc1Cl (relative stereo) [Example 266] |
| – | – | 3.24^[b] | – | O=C(N[C@@H]1CC[C@H]1c1ccccc1C(F)(F)F)c1c(F)cccc1F (relative stereo) [Example 267] |
| – | – | 2.64^[b] | 2.59^[c]; | O=C(N[C@@H]1C[C@@H]1c1ccc(Cl)cc1)c1c(F)cccc1F (relative stereo) [Example 268] |
| – | – | 2.79^[b] | 2.75^[c]; | O=C(N[C@@H]1C[C@@H]1c1ccc(Cl)cc1)c1ccccc1F (relative stereo) [Example 269] |
| – | – | 3.56^[b] | – | Cn1cc(C(=O)N[C@@H]2CCCC[C@H]2c2ccccc2C(F)(F)F)c(C(F)F)n1 (relative stereo) [Example 288] |
| – | – | 3.27^[b] | – | O=C(N[C@@H]1CCC[C@H]1c1ccccc1C(F)(F)F)c1cccnc1C(F)(F)F (relative stereo) [Example 289] |
| – | – | 2.46^[b] | 2.46^[c]; | O=C(N[C@@H]1CCC[C@@H]1c1ccc(C(F)(F)F)cc1)c1cccnc1 (relative stereo) [Example 298] |
| – | – | 3.83^[b] | 3.79^[c]; | O=C(N[C@@H]1CCC[C@@H]1c1ccc(C(F)(F)F)cc1)c1ccccc1C(F)(F)F (relative stereo) [Example 302] |
| – | – | 3.73^[b] | 3.68^[c]; | O=C(N[C@@H]1CCC[C@@H]1c1ccc(C(F)(F)F)cc1)c1ccccc1Br (relative stereo) [Example 303] |
| – | – | 3.51^[b] | 3.47^[c]; | O=C(N[C@@H]1CCC[C@@H]1c1ccc(C(F)(F)F)cc1)c1c(F)cccc1F (relative stereo) [Example 304] |
| – | – | 3.31^[b] | 3.27^[c]; | O=C(N[C@@H]1CCC[C@@H]1c1ccc(C(F)(F)F)cc1)c1ccccc1[N+](=O)[O-] (relative stereo) [Example 306] |
| – | – | 3.04^[b] | 2.98^[c]; | O=C(N[C@@H]1CCC[C@@H]1c1ccc(C(F)(F)F)cc1)c1cccnc1Cl (relative stereo) [Example 315] |
| – | – | 3.12^[b] | 3.08^[c]; | O=C(N[C@@H]1CCC[C@@H]1c1ccccc1F)c1ccccc1Cl (relative stereo) [Example 316] |
| – | – | 3.74^[b] | 3.73^[c]; | CC(C)Oc1ccc([C@H]2CCC[C@H]2NC(=O)c2ccccc2Cl)cc1 (relative stereo) [Example 317] |
| – | – | 3.30^[b] | 3.25^[c]; | CC(C)Oc1ccc([C@H]2CCC[C@H]2NC(=O)c2ccccc2[N+](=O)[O-])cc1 (relative stereo) [Example 318] |
| – | – | 3.18^[b] | 3.14^[c]; | O=C(N[C@@H]1CCC[C@@H]1c1ccccc1F)c1ccccc1Br (relative stereo) [Example 319] |
| – | – | 3.90^[b] | 3.84^[c]; | CC(C)Oc1ccc([C@H]2CCC[C@H]2NC(=O)c2ccccc2C(F)(F)F)cc1 (relative stereo) [Example 325] |
| – | – | 3.06^[b] | 2.99^[c]; | CC(C)Oc1ccc([C@H]2CCC[C@H]2NC(=O)c2cccnc2Cl)cc1 (relative stereo) [Example 326] |
| – | – | 3.81^[b] | 3.74^[c]; | CC(C)Oc1ccc([C@H]2CCC[C@H]2NC(=O)c2ccccc2Br)cc1 (relative stereo) [Example 327] |
| – | – | 2.95^[b] | 2.90^[c]; | O=C(N[C@@H]1CCC[C@@H]1c1ccccc1F)c1c(F)cccc1F (relative stereo) [Example 328] |
| – | – | 3.55^[b] | 3.49^[c]; | CC(C)Oc1ccc([C@H]2CCC[C@H]2NC(=O)c2c(F)cccc2F)cc1 (relative stereo) [Example 329] |
| – | – | 3.55^[b] | 3.45^[c]; | O=C(N[C@@H]1CCC[C@@H]1c1ccc(C(F)(F)F)cc1)c1nccnc1C(F)(F)F (relative stereo) [Example 330] |
| – | – | 3.36^[b] | 3.28^[c]; | O=C(N[C@@H]1CCC[C@@H]1c1ccc(C(F)(F)F)cc1)c1ncccc1C(F)(F)F (relative stereo) [Example 331] |
| – | – | 3.30^[b] | 3.28^[c]; | O=C(N[C@@H]1CCC[C@@H]1c1ccccc1F)c1ccccc1I (relative stereo) [Example 332] |
| – | – | 3.92^[b] | 3.89^[c]; | CC(C)Oc1ccc([C@H]2CCC[C@H]2NC(=O)c2ccccc2I)cc1 (relative stereo) [Example 333] |
| – | – | 2.41^[b] | 2.46^[c]; | CC(C)Oc1ccc([C@H]2CCC[C@H]2NC(=O)c2ccccn2)cc1 (relative stereo) [Example 334] |
| – | – | 3.23^[b] | 3.21^[c]; | CC(C)Oc1ccc([C@H]2CCC[C@H]2NC(=O)c2nccnc2Cl)cc1 (relative stereo) [Example 335] |
| – | – | 2.61^[b] | 2.55^[c]; | O=C(N[C@@H]1CCC[C@@H]1c1ccccc1F)c1nccnc1Cl (relative stereo) [Example 336] |
